Reference: patent US20090155209A1, “NOVEL MACROCYCLIC INHIBITORS OF HEPATITIS C VIRUS REPLICATION” (priority 2007, published 2009)

Key:
[1] = target: T1, NS3-NS4 (Hepatitis C virus genotype 1a, UniProt P27958); assay: cell-based; conditions: EC50, NS3-NS4 activity
[2] = target: T1, NS3-NS4; assay: NS3-NS4 activity, IC50 (Example 37, Table 8); assay type: biochemical

T1 sequence (P27958 1027-1657): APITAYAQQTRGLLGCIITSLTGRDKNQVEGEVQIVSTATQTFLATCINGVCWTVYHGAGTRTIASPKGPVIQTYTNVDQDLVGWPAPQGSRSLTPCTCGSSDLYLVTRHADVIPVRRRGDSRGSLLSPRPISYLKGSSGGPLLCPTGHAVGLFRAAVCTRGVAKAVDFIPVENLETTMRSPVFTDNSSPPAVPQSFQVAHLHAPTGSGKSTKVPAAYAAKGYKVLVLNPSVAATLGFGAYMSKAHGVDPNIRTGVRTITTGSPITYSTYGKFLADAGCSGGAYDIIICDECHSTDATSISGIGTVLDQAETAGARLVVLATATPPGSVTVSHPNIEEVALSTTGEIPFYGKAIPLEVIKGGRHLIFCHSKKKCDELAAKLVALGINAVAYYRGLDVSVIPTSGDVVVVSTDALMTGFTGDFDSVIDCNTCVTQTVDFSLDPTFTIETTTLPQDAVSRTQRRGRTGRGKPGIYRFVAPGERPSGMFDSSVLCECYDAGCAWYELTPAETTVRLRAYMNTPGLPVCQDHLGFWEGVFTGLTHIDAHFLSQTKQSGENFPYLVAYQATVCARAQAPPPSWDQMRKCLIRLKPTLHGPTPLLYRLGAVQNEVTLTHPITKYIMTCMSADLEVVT
T1 sequence (P27958 1658-1711): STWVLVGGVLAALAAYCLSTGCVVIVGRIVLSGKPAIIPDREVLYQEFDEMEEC

SMILES: Cc1ccc(S(=O)(=O)NC(=O)[C@@]23C[C@H]2/C=C\CCCCC[C@H](NC(=O)OC(C)(C)C)C(=O)N2C[C@H](OC(=O)N4Cc5cccc(F)c5C4)C[C@H]2C(=O)N3)o1 [Compound 533]
- EC50 [1]: < 100 nM
- IC50 [2]: < 100 nM

SMILES: Cc1cc(S(=O)(=O)NC(=O)[C@@]23C[C@H]2/C=C\CCCCC[C@H](NC(=O)OC(C)(C)C)C(=O)N2C[C@H](OC(=O)N4Cc5cccc(F)c5C4)C[C@H]2C(=O)N3)oc1C [Compound 534]
- EC50 [1]: 100 to 1000 nM
- IC50 [2]: < 100 nM

SMILES: CC(C)(C)OC(=O)N[C@H]1CCCCC/C=C\[C@@H]2C[C@@]2(C(=O)NS(=O)(=O)c2cc(Cl)cs2)NC(=O)[C@@H]2C[C@@H](OC(=O)N3Cc4cccc(F)c4C3)CN2C1=O [Compound 536]
- EC50 [1]: < 100 nM
- IC50 [2]: < 100 nM

SMILES: Cc1ccc(S(=O)(=O)NC(=O)[C@@]23C[C@H]2/C=C\CCCCC[C@H](NC(=O)OC(C)(C)C)C(=O)N2C[C@H](OC(=O)N4Cc5cccc(F)c5C4)C[C@H]2C(=O)N3)s1 [Compound 538]
- EC50 [1]: < 100 nM
- IC50 [2]: < 100 nM

SMILES: Cc1csc(S(=O)(=O)NC(=O)[C@@]23C[C@H]2/C=C\CCCCC[C@H](NC(=O)OC(C)(C)C)C(=O)N2C[C@H](OC(=O)N4Cc5cccc(F)c5C4)C[C@H]2C(=O)N3)c1 [Compound 539]
- EC50 [1]: < 100 nM
- IC50 [2]: < 100 nM

SMILES: COc1csc(S(=O)(=O)NC(=O)[C@@]23C[C@H]2/C=C\CCCCC[C@H](NC(=O)OC(C)(C)C)C(=O)N2C[C@H](OC(=O)N4Cc5cccc(F)c5C4)C[C@H]2C(=O)N3)c1 [Compound 541]
- EC50 [1]: < 100 nM
- IC50 [2]: < 100 nM

SMILES: CC(C)(C)OC(=O)N[C@H]1CCCCC/C=C\[C@@H]2C[C@@]2(C(=O)NS(=O)(=O)c2cc3ccccc3o2)NC(=O)[C@@H]2C[C@@H](OC(=O)N3Cc4cccc(F)c4C3)CN2C1=O [Compound 542]
- EC50 [1]: 100 to 1000 nM
- IC50 [2]: < 100 nM

SMILES: C=CCC1(S(=O)(=O)NC(=O)[C@@]23C[C@H]2/C=C\CCCCC[C@H](NC(=O)OC(C)(C)C)C(=O)N2C[C@H](OC(=O)N4Cc5cccc(F)c5C4)C[C@H]2C(=O)N3)CC1 [Compound 543]
- EC50 [1]: < 100 nM
- IC50 [2]: < 100 nM

SMILES: CCCS(=O)(=O)NC(=O)[C@@]12C[C@H]1/C=C\CCCCC[C@H](NC(=O)OC(C)(C)C)C(=O)N1C[C@H](OC(=O)N3Cc4cccc(F)c4C3)C[C@H]1C(=O)N2 [Compound 550]
- EC50 [1]: < 100 nM
- IC50 [2]: < 100 nM

SMILES: CC(C)CS(=O)(=O)NC(=O)[C@@]12C[C@H]1/C=C\CCCCC[C@H](NC(=O)OC(C)(C)C)C(=O)N1C[C@H](OC(=O)N3Cc4cccc(F)c4C3)C[C@H]1C(=O)N2 [Compound 551]
- EC50 [1]: < 100 nM
- IC50 [2]: < 100 nM

SMILES: CC(C)(C)OC(=O)N[C@H]1CCCCCCC[C@@H]2C[C@@]2(C(=O)NS(=O)(=O)c2ccccc2)NC(=O)[C@@H]2C[C@@H](OC(=O)N3Cc4cccc(F)c4C3)CN2C1=O [Compound 601]
- EC50 [1]: < 100 nM
- IC50 [2]: < 100 nM

SMILES: Cc1ccccc1S(=O)(=O)NC(=O)[C@@]12C[C@H]1CCCCCCC[C@H](NC(=O)OC(C)(C)C)C(=O)N1C[C@H](OC(=O)N3Cc4cccc(F)c4C3)C[C@H]1C(=O)N2 [Compound 602]
- EC50 [1]: < 100 nM
- IC50 [2]: < 100 nM

SMILES: CC(C)(C)OC(=O)N[C@H]1CCCCCCC[C@@H]2C[C@@]2(C(=O)NS(=O)(=O)c2ccccc2Cl)NC(=O)[C@@H]2C[C@@H](OC(=O)N3Cc4cccc(F)c4C3)CN2C1=O [Compound 603]
- EC50 [1]: < 100 nM
- IC50 [2]: < 100 nM

SMILES: CC(C)(C)OC(=O)N[C@H]1CCCCCCC[C@@H]2C[C@@]2(C(=O)NS(=O)(=O)c2ccc(Cl)cc2)NC(=O)[C@@H]2C[C@@H](OC(=O)N3Cc4cccc(F)c4C3)CN2C1=O [Compound 604]
- EC50 [1]: < 100 nM
- IC50 [2]: < 100 nM

SMILES: CC(C)(C)OC(=O)N[C@H]1CCCCCCC[C@@H]2C[C@@]2(C(=O)NS(=O)(=O)c2ccccc2C(F)(F)F)NC(=O)[C@@H]2C[C@@H](OC(=O)N3Cc4cccc(F)c4C3)CN2C1=O [Compound 605]
- EC50 [1]: < 100 nM
- IC50 [2]: < 100 nM

SMILES: CC(C)(C)OC(=O)N[C@H]1CCCCCCC[C@@H]2C[C@@]2(C(=O)NS(=O)(=O)c2cc(Cl)sc2Cl)NC(=O)[C@@H]2C[C@@H](OC(=O)N3Cc4cccc(F)c4C3)CN2C1=O [Compound 606]
- EC50 [1]: < 100 nM
- IC50 [2]: < 100 nM

SMILES: Cc1ccccc1CS(=O)(=O)NC(=O)[C@@]12C[C@H]1CCCCCCC[C@H](NC(=O)OC(C)(C)C)C(=O)N1C[C@H](OC(=O)N3Cc4cccc(F)c4C3)C[C@H]1C(=O)N2 [Compound 613]
- EC50 [1]: < 100 nM
- IC50 [2]: < 100 nM

SMILES: Cc1ccc(C)c(CS(=O)(=O)NC(=O)[C@@]23C[C@H]2CCCCCCC[C@H](NC(=O)OC(C)(C)C)C(=O)N2C[C@H](OC(=O)N4Cc5cccc(F)c5C4)C[C@H]2C(=O)N3)c1 [Compound 629]
- EC50 [1]: < 100 nM
- IC50 [2]: < 100 nM

SMILES: COc1cc(CS(=O)(=O)NC(=O)[C@@]23C[C@H]2CCCCCCC[C@H](NC(=O)OC(C)(C)C)C(=O)N2C[C@H](OC(=O)N4Cc5cccc(F)c5C4)C[C@H]2C(=O)N3)cc(OC)c1 [Compound 632]
- EC50 [1]: 100 to 1000 nM
- IC50 [2]: < 100 nM

SMILES: CC(C)(C)OC(=O)N[C@H]1CCCCCCC[C@@H]2C[C@@]2(C(=O)NS(=O)(=O)c2ccc(Cl)nc2Cl)NC(=O)[C@@H]2C[C@@H](OC(=O)N3Cc4cccc(F)c4C3)CN2C1=O [Compound 637]
- EC50 [1]: 100 to 1000 nM
- IC50 [2]: < 100 nM

SMILES: COc1ccc(S(=O)(=O)NC(=O)[C@@]23C[C@H]2CCCCCCC[C@H](NC(=O)OC(C)(C)C)C(=O)N2C[C@H](OC(=O)N4Cc5cccc(F)c5C4)C[C@H]2C(=O)N3)cn1 [Compound 638]
- EC50 [1]: < 100 nM
- IC50 [2]: < 100 nM

SMILES: Cc1csc(S(=O)(=O)NC(=O)[C@@]23C[C@H]2CCCCCCC[C@H](NC(=O)OC(C)(C)C)C(=O)N2C[C@H](OC(=O)N4Cc5cccc(F)c5C4)C[C@H]2C(=O)N3)c1 [Compound 645]
- EC50 [1]: < 100 nM
- IC50 [2]: < 100 nM

SMILES: CC(C)(C)OC(=O)N[C@H]1CCCCCCC[C@@H]2C[C@@]2(C(=O)NS(=O)(=O)c2cc3ccccc3o2)NC(=O)[C@@H]2C[C@@H](OC(=O)N3Cc4cccc(F)c4C3)CN2C1=O [Compound 648]
- EC50 [1]: 100 to 1000 nM
- IC50 [2]: < 100 nM

SMILES: C=CCC1(S(=O)(=O)NC(=O)[C@@]23C[C@H]2CCCCCCC[C@H](NC(=O)OC(C)(C)C)C(=O)N2C[C@H](OC(=O)N4Cc5cccc(F)c5C4)C[C@H]2C(=O)N3)CC1 [Compound 649]
- EC50 [1]: < 100 nM
- IC50 [2]: < 100 nM

SMILES: CCC1(S(=O)(=O)NC(=O)[C@@]23C[C@H]2CCCCCCC[C@H](NC(=O)OC(C)(C)C)C(=O)N2C[C@H](OC(=O)N4Cc5cccc(F)c5C4)C[C@H]2C(=O)N3)CC1 [Compound 650]
- EC50 [1]: < 100 nM
- IC50 [2]: < 100 nM

SMILES: CCCC1(S(=O)(=O)NC(=O)[C@@]23C[C@H]2CCCCCCC[C@H](NC(=O)OC(C)(C)C)C(=O)N2C[C@H](OC(=O)N4Cc5cccc(F)c5C4)C[C@H]2C(=O)N3)CC1 [Compound 651]
- EC50 [1]: < 100 nM
- IC50 [2]: < 100 nM

SMILES: COCC1(S(=O)(=O)NC(=O)[C@@]23C[C@H]2CCCCCCC[C@H](NC(=O)OC(C)(C)C)C(=O)N2C[C@H](OC(=O)N4Cc5cccc(F)c5C4)C[C@H]2C(=O)N3)CC1 [Compound 652]
- EC50 [1]: < 100 nM
- IC50 [2]: < 100 nM

SMILES: CC(C)C1(S(=O)(=O)NC(=O)[C@@]23C[C@H]2CCCCCCC[C@H](NC(=O)OC(C)(C)C)C(=O)N2C[C@H](OC(=O)N4Cc5cccc(F)c5C4)C[C@H]2C(=O)N3)CC1 [Compound 653]
- EC50 [1]: < 100 nM
- IC50 [2]: < 100 nM

SMILES: CC(C)CC1(S(=O)(=O)NC(=O)[C@@]23C[C@H]2CCCCCCC[C@H](NC(=O)OC(C)(C)C)C(=O)N2C[C@H](OC(=O)N4Cc5cccc(F)c5C4)C[C@H]2C(=O)N3)CC1 [Compound 654]
- EC50 [1]: < 100 nM
- IC50 [2]: < 100 nM

SMILES: CCCS(=O)(=O)NC(=O)[C@@]12C[C@H]1CCCCCCC[C@H](NC(=O)OC(C)(C)C)C(=O)N1C[C@H](OC(=O)N3Cc4cccc(F)c4C3)C[C@H]1C(=O)N2 [Compound 655]
- EC50 [1]: < 100 nM
- IC50 [2]: < 100 nM

SMILES: CC(C)CS(=O)(=O)NC(=O)[C@@]12C[C@H]1CCCCCCC[C@H](NC(=O)OC(C)(C)C)C(=O)N1C[C@H](OC(=O)N3Cc4cccc(F)c4C3)C[C@H]1C(=O)N2 [Compound 656]
- EC50 [1]: < 100 nM
- IC50 [2]: < 100 nM

SMILES: Cc1cccc(ONC(=O)[C@@]23C[C@H]2/C=C\CCCCC[C@H](NC(=O)OC(C)(C)C)C(=O)N2C[C@H](OC(=O)N4Cc5cccc(F)c5C4)C[C@H]2C(=O)N3)c1 [Compound 702]
- EC50 [1]: 1000 to 10000 nM
- IC50 [2]: < 100 nM

SMILES: CC(C)(C)OC(=O)N[C@H]1CCCCC/C=C\[C@@H]2C[C@@]2(C(=O)NOc2cccc(F)c2)NC(=O)[C@@H]2C[C@@H](OC(=O)N3Cc4cccc(F)c4C3)CN2C1=O [Compound 704]
- EC50 [1]: 1000 to 10000 nM
- IC50 [2]: < 100 nM

SMILES: CC(C)(C)OC(=O)N[C@H]1CCCCC/C=C\[C@@H]2C[C@@]2(C(=O)NOc2ccc(Cl)cc2)NC(=O)[C@@H]2C[C@@H](OC(=O)N3Cc4cccc(F)c4C3)CN2C1=O [Compound 707]
- EC50 [1]: 1000 to 10000 nM
- IC50 [2]: < 100 nM

SMILES: COc1cccc(ONC(=O)[C@@]23C[C@H]2/C=C\CCCCC[C@H](NC(=O)OC(C)(C)C)C(=O)N2C[C@H](OC(=O)N4Cc5cccc(F)c5C4)C[C@H]2C(=O)N3)c1 [Compound 708]
- EC50 [1]: 1000 to 10000 nM
- IC50 [2]: < 100 nM

SMILES: CC(C)(C)OC(=O)N[C@H]1CCCCC/C=C\[C@@H]2C[C@@]2(C(=O)NOc2cccc(C(F)(F)F)c2)NC(=O)[C@@H]2C[C@@H](OC(=O)N3Cc4cccc(F)c4C3)CN2C1=O [Compound 709]
- EC50 [1]: 1000 to 10000 nM
- IC50 [2]: < 100 nM

SMILES: CC(C)(C)OC(=O)N[C@H]1CCCCC/C=C\[C@@H]2C[C@@]2(C(=O)NOc2ccc(-c3ccccc3)cc2)NC(=O)[C@@H]2C[C@@H](OC(=O)N3Cc4cccc(F)c4C3)CN2C1=O [Compound 710]
- EC50 [1]: 1000 to 10000 nM
- IC50 [2]: < 100 nM

SMILES: CC(C)(C)OC(=O)N[C@H]1CCCCC/C=C\[C@@H]2C[C@@]2(C(=O)NOc2ccccc2)NC(=O)[C@@H]2C[C@@H](OC(=O)N3Cc4cccc(F)c4C3)CN2C1=O [Compound 711]
- EC50 [1]: 1000 to 10000 nM
- IC50 [2]: < 100 nM

SMILES: Cc1cccc(ONC(=O)[C@@]23C[C@H]2/C=C\CCCCC[C@H](NC(=O)OC(C)(C)C)C(=O)N2C[C@H](OC(=O)N4Cc5cccc(F)c5C4)C[C@H]2C(=O)N3)c1C [Compound 712]
- EC50 [1]: 1000 to 10000 nM
- IC50 [2]: < 100 nM

SMILES: Cc1ccc(C)c(ONC(=O)[C@@]23C[C@H]2/C=C\CCCCC[C@H](NC(=O)OC(C)(C)C)C(=O)N2C[C@H](OC(=O)N4Cc5cccc(F)c5C4)C[C@H]2C(=O)N3)c1 [Compound 713]
- EC50 [1]: 1000 to 10000 nM
- IC50 [2]: < 100 nM
